Measurements as given in patent US20100227873A1, “NITROGEN-CONTAINING HETEROCYCLIC COMPOUNDS AND METHODS OF USE THEREOF” (Schering Corporation, priority 2005, published 2010).

Biological target: recombinant human nicotinic acid receptor (NAR) (Homo sapiens, UniProt Q8TDS4)
Assay: Nicotinic acid receptor assay: inhibition of forskolin-stimulated cAMP accumulation (MesoScale Discovery cAMP detection kit) in CHO cells
Format: cell-based
Settings: CHO cells expressing recombinant human NAR, activity class, read-out: NA EC50 camp
Method: The nicotinic acid receptor agonist activity of the inventive compounds was determined by following the inhibition of forskolin-stimulated cAMP accumulation in cells using the MesoScale Discovery cAMP detection kit following the manufacturer's protocol. Briefly, Chinese Hamster Ovary (CHO) cells expressing recombinant human nicotinic acid receptor (NAR) were harvested enzymatically, washed 1× in phosphate buffered saline (PBS) and resuspended in PBS containing 0.5 mM IBMX at 3×10^6 cells/mL. Ten μL of cell suspension was added to each well of a 384-well plate which contained 10 μL of test compounds. Test compounds were diluted with PBS containing 6 μM of forskolin. Plates were incubated for 30 minutes at room temperature after the addition of cells. Lysis buffer containing cAMP-Tag was added to each well (10 μL/well) as per the manufacturer's protocol. Plates were then incubated from 45 minutes to overnight. Prior to reading, 10 μt of read buffer was added to each well, and the plate was read in a Sector 6000 plate imager. The signal was converted to cAMP concentration using a standard curve run on each plate. Compound EC50 values were determined from concentration gradients of test compounds.

Chain of recombinant human nicotinic acid receptor (NAR) (Q8TDS4 whole entry): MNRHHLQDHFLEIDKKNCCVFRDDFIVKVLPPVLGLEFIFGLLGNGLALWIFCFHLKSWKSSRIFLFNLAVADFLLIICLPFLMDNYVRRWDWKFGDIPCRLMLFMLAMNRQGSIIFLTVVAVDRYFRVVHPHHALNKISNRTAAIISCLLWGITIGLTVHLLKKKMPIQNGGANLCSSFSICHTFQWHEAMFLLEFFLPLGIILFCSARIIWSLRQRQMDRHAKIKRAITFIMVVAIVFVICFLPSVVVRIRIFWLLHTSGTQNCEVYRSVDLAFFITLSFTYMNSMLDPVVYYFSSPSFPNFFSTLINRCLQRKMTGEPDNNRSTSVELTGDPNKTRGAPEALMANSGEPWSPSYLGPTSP

O=c1[nH]c(=O)c2c(Cc3cccc(Br)c3)cc(=O)oc2[nH]1 [Compound 238]
EC50: 100 to 1000 nM
